# Assay results from paper PMC10817943 (Nature Communications, 2024).
# Values joined by “and” are separate entries in the source; they are usually repeats but may differ in a detail not shown here. Identical values can stand only once. Like-named read-outs stand apart in the source and are kept apart here. Numbered stars: 1 amine (or outer) side, 2 acyl side, 3 side chain; on linkers, the order of the positions; unused ones are H or OH. Bridge positions count the residues as written; N and C are the ends. Square brackets hold non-standard residues; d marks the D form. Peptide text beside a SMILES is read from it. * marks the point of attachment. ξ: configuration not given here. X1 = CCC1CC(C(=O)[*:2])N([*:1])C1; Butanoyl(2-oxo) = CCC(=O)C(=O)*; ξPro(4ξ-Me) = CC1CNC(C(=O)O)C1; NMeT = CN[CH](C(=O)O)[CH](C)O; NMeL = CN[CH](CC(C)C)C(=O)O; hLeu = CC(C)CC[CH](N)C(=O)O; NMeV = CN[CH](C(=O)O)C(C)C
# What was measured:
# [1] = target: M. smegmatis DnaN (msDnaN) (Mycolicibacterium smegmatis, UniProt A0QND6); test: biochemical; assay type: binding; conditions: for Response (Average): MST source data, runs #1-#3, listed as MP A
# [2] = system: M. smegmatis mc^2155 GM^R; test: microbe, parasite or virus in culture; assay type: cell-based; conditions: Mycolicibacterium smegmatis, MC^2155, read-out: MIC M. smegmatis mc^2155 GM^R
# [3] = system: M. smegmatis (Msmeg) strain mc^2155; test: microbe, parasite or virus in culture; assay type: cell-based; conditions: Mycolicibacterium smegmatis, MC^2155, read-out: MIC M. smegmatis mc^2155
# B. subtilis DSM 10 = test: microbe, parasite or virus in culture; assay type: cell-based; conditions: Bacillus subtilis, DSM10, read-out: MIC B. subtilis DSM 10
# E. coli BW25113 = test: microbe, parasite or virus in culture; assay type: cell-based; conditions: Escherichia coli, BW25113, read-out: MIC E. coli BW25113
# S. aureus Newman = test: microbe, parasite or virus in culture; assay type: cell-based; conditions: Staphylococcus aureus, read-out: MIC S. aureus Newman
# [4] = system: M. tuberculosis (Mtb) strain H37Rv; conditions: cited from earlier work
# [5] = system: M. marinum (Mm) strain M (ATCC BAA-535); test: microbe, parasite or virus in culture; assay type: cell-based; conditions: Mycobacterium marinum, ATCCBAA535, read-out: MIC M. marinum strain M
# [6] = system: M. smegmatis mc^2155 reporter strain harboring PrecA-LUX; conditions: for luminescence induction: RecA reporter, ciprofloxacin 0.06 µg/mL, MPA 0.125 µg/mL
# [7] = system: M. tuberculosis (Mtb) strain H37Ra; test: microbe, parasite or virus in culture; assay type: cell-based; conditions: Mycobacterium tuberculosis, read-out: MIC Mtb H37Ra
# [8] = system: M. smegmatis mc^2155 reporter strain harboring PradA-LUX; conditions: for luminescence induction: RadA reporter, ciprofloxacin 0.06 µg/mL, MPA 0.125 µg/mL
# C. freundii DSM 30039 = test: microbe, parasite or virus in culture; assay type: cell-based; conditions: Citrobacter freundii, DSM30039, read-out: MIC C. freundii DSM 30039
# [9] = system: M. tuberculosis (Mtb) strain H37Rv; test: microbe, parasite or virus in culture; assay type: cell-based, Mycobacterium tuberculosis
# A. baumannii DSM 30008 = test: microbe, parasite or virus in culture; assay type: cell-based; conditions: Acinetobacter baumannii, DSM30008, read-out: MIC A. baumannii DSM 30008
# CHO-K1 cells = test: cells; assay type: cell-based, Chinese hamster (Cricetulus griseus); conditions: Cricetulus griseus, CHO-K1, 120 h, read-out: IC50 CHO-K1
# Chain of M. smegmatis DnaN (msDnaN) (A0QND6 whole entry, looked up): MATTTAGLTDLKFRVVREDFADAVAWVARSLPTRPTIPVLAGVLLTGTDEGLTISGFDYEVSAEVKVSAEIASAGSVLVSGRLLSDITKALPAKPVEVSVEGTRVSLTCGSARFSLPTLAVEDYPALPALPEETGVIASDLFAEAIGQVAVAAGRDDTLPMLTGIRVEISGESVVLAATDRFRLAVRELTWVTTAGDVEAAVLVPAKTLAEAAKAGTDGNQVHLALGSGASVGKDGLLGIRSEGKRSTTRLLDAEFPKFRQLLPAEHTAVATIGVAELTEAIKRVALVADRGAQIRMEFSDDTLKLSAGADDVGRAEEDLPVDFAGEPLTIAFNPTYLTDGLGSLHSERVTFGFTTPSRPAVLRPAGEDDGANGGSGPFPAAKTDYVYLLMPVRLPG
structure (smiles),measurement,setting,value
CCC(=O)C(=O)N(C)C(C(=O)N1CC(CC)CC1C(=O)N(C)C1C(=O)NC(CC(C)C)C(=O)N2CC(C)CC2C(=O)NC(CCC(C)C)C(=O)N(C)C(C(C)C)C(=O)N2CCCC2C(=O)N(C)C(CC(C)C)C(=O)NCC(=O)OC1C)C(C)C (centres unmarked) [Mycoplanecin A] ({Butanoyl(2-oxo)}-[NMeV][X1][NMeT]L[ξPro(4ξ-Me)][hLeu][NMeV]P[NMeL]G; ester 3-C; configuration not given here),Kd,[1],0.0954 ± 0.058 µM
same,Response (Average),[1]; Dose 1.22E-08 (unit not given),901.8 and 900.043 and 900.321
same,Response (Average),[1]; Dose 1.25E-05 (unit not given),916.3 and 910.333 and 908.121
same,Response (Average),[1]; Dose 1.53E-09 (unit not given),900.5 and 901.137 and 897.639
same,Response (Average),[1]; Dose 1.56E-06 (unit not given),912 and 910.977 and 908.315
same,Response (Average),[1]; Dose 1.95E-07 (unit not given),911.4 and 903.026 and 901.872
same,Response (Average),[1]; Dose 2.44E-08 (unit not given),900.5 and 898.574 and 901.47
same,Response (Average),[1]; Dose 2.50E-05 (unit not given),912.5 and 912.466 and 910.671
same,Response (Average),[1]; Dose 3.05E-09 (unit not given),907.2 and 900.824 and 900.843
same,Response (Average),[1]; Dose 3.13E-06 (unit not given),913.2 and 908.487 and 910.005
same,Response (Average),[1]; Dose 3.91E-07 (unit not given),910.5 and 900.599 and 903.733
same,Response (Average),[1]; Dose 4.88E-08 (unit not given),904.4 and 896.349 and 895.973
same,Response (Average),[1]; Dose 5.00E-05 (unit not given),912 and 911.551 and 911.531
same,Response (Average),[1]; Dose 6.10E-09 (unit not given),899.2 and 900.167 and 896.514
same,Response (Average),[1]; Dose 6.25E-06 (unit not given),912 and 910.662 and 909.72
same,Response (Average),[1]; Dose 7.81E-07 (unit not given),913.8 and 908.369 and 909.33
same,Response (Average),[1]; Dose 9.77E-08 (unit not given),902.5 and 896.716 and 900.856
same,MIC,[2],4 µg/mL
same,MIC,[3],0.0625 µg/mL
same,MIC,B. subtilis DSM 10,> 64 µg/mL
same,MIC,E. coli BW25113,> 64 µg/mL
same,MIC,S. aureus Newman,> 64 µg/mL
same,MIC against Mtb H37Rv initially reported,[4],0.39 µg/mL
same,MIC,[5],0.5 µg/mL
same,induction of SOS response through RecA (luminescence),"[6]; 2x MIC, listed as MP A",Strong induction of luminescence
same,luminescence induction,[6]; elapsed time 0:00:00,1234 RLU
same,luminescence induction,[6]; elapsed time 3:00:00,8420 RLU
same,luminescence induction,[6]; elapsed time 6:00:00,19572 RLU
same,luminescence induction,[6]; elapsed time 9:00:00,19402 RLU
same,luminescence induction,[6]; elapsed time 12:00:00,19729 RLU
same,luminescence induction,[6]; elapsed time 15:00:00,23383 RLU
same,luminescence induction,[6]; elapsed time 18:00:00,24012 RLU
same,luminescence induction,[6]; elapsed time 21:00:00,23254 RLU
same,luminescence induction,[6]; elapsed time 24:00:00,21764 RLU
same,luminescence induction,[6]; elapsed time 27:00:00,21831 RLU
same,luminescence induction,[6]; elapsed time 30:00:00,22602 RLU
same,luminescence induction,[6]; elapsed time 33:00:00,24786 RLU
same,luminescence induction,[6]; elapsed time 36:00:00,30979 RLU
same,luminescence induction,[6]; elapsed time 39:00:00,43998 RLU
same,luminescence induction,[6]; elapsed time 42:00:00,72104 RLU
same,luminescence induction,[6]; elapsed time 45:00:00,126348 RLU
same,luminescence induction,[6]; elapsed time 48:00:00,167800 RLU
same,luminescence induction,[6]; elapsed time 51:00:00,276102 RLU
same,luminescence induction,[6]; elapsed time 54:00:00,398120 RLU
same,luminescence induction,[6]; elapsed time 57:00:00,382129 RLU
same,luminescence induction,[6]; elapsed time 60:00:00,236913 RLU
same,luminescence induction,[6]; elapsed time 63:00:00,123029 RLU
same,luminescence induction,[6]; elapsed time 66:00:00,65825 RLU
same,luminescence induction,[6]; elapsed time 69:00:00,39152 RLU
same,luminescence induction,[6]; elapsed time 72:00:00,26573 RLU
same,luminescence induction,[6]; elapsed time 75:00:00,20127 RLU
same,luminescence induction,[6]; elapsed time 78:00:00,16583 RLU
same,luminescence induction,[6]; elapsed time 81:00:00,14319 RLU
same,luminescence induction,[6]; elapsed time 84:00:00,12316 RLU
same,luminescence induction,[6]; elapsed time 87:00:00,11375 RLU
same,MIC,[7],0.03 µg/mL
same,induction of DNA repair through RadA (luminescence),"[8]; 2x MIC, listed as MP A",Strong induction of luminescence
same,luminescence induction,[8]; elapsed time 0:00:00,121 RLU
same,luminescence induction,[8]; elapsed time 3:00:00,1545 RLU
same,luminescence induction,[8]; elapsed time 6:00:00,2517 RLU
same,luminescence induction,[8]; elapsed time 9:00:00,2232 RLU
same,luminescence induction,[8]; elapsed time 12:00:00,2473 RLU
same,luminescence induction,[8]; elapsed time 15:00:00,2636 RLU
same,luminescence induction,[8]; elapsed time 18:00:00,2684 RLU
same,luminescence induction,[8]; elapsed time 21:00:00,2416 RLU
same,luminescence induction,[8]; elapsed time 24:00:00,2295 RLU
same,luminescence induction,[8]; elapsed time 27:00:00,2095 RLU
same,luminescence induction,[8]; elapsed time 30:00:00,2147 RLU
same,luminescence induction,[8]; elapsed time 33:00:00,2090 RLU
same,luminescence induction,[8]; elapsed time 36:00:00,2617 RLU
same,luminescence induction,[8]; elapsed time 39:00:00,3126 RLU
same,luminescence induction,[8]; elapsed time 42:00:00,4043 RLU
same,luminescence induction,[8]; elapsed time 45:00:00,5111 RLU
same,luminescence induction,[8]; elapsed time 48:00:00,7463 RLU
same,luminescence induction,[8]; elapsed time 51:00:00,8233 RLU
same,luminescence induction,[8]; elapsed time 54:00:00,11519 RLU
same,luminescence induction,[8]; elapsed time 57:00:00,17058 RLU
same,luminescence induction,[8]; elapsed time 60:00:00,25987 RLU
same,luminescence induction,[8]; elapsed time 63:00:00,36814 RLU
same,luminescence induction,[8]; elapsed time 66:00:00,80633 RLU
same,luminescence induction,[8]; elapsed time 69:00:00,73655 RLU
same,luminescence induction,[8]; elapsed time 72:00:00,45431 RLU
same,luminescence induction,[8]; elapsed time 75:00:00,26035 RLU
same,luminescence induction,[8]; elapsed time 78:00:00,15293 RLU
same,luminescence induction,[8]; elapsed time 81:00:00,10478 RLU
same,luminescence induction,[8]; elapsed time 84:00:00,7153 RLU
same,luminescence induction,[8]; elapsed time 87:00:00,4415 RLU
same,MIC,C. freundii DSM 30039,> 64 µg/mL
same,lower MIC against Mtb H37Rv than initially reported,[9],four-fold
same,MIC,"[9]; Mycobacterium tuberculosis, H37RV, read-out: MIC Mtb H37Rv",0.102 µg/mL
same,MIC,A. baumannii DSM 30008,> 64 µg/mL
same,IC50,CHO-K1 cells,> 37 µg/mL
